# Measured values reported in ChEMBL document CHEMBL6092147, “Design of inhibitors of SARS-CoV-2 papain-like protease deriving from GRL0617: Structure-activity relationships” (Bioorg Med Chem, 2024).
# Target: T1, Replicase polyprotein 1ab (Severe acute respiratory syndrome coronavirus 2, UniProt P0DTD1)
# Assay: Inhibition of SARS-CoV-2 papain-like protease (PLpro) by enzymatic assay
row,Structure (SMILES),IC50
1,CCn1ccc(-c2cc(-c3cnn(CCOC)c3)cc([C@@H](C)NC(=O)c3cc(OCCN(C)C)ccc3C)c2)n1,160 nM

# Target: T1, Replicase polyprotein 1ab
# Assay: Binding affinity to SARS-CoV-2 3CL protease assessed as dissociation constant by SPR analysis
row,Structure (SMILES),Kd
1,CCC(C(=O)Nc1cc(NC2CCNCC2)ccc1C)n1cc(Br)cc2nc(SCc3ccc(F)cc3)nc1-2 (racemic),170 nM
2,CCC(C(=O)Nc1cc(NC2CNC2)ccc1C)n1cc(Br)cc2nc(SCc3ccc(F)cc3)nc1-2 (racemic),100 nM
3,CCC(C(=O)Nc1cc(NC2CNC2)ccc1C)n1cc(Cl)cc2nc(SCc3ccc(F)cc3)nc1-2 (racemic),100 nM
4,CCC(C(=O)Nc1cc(NC2CCNC2)ccc1C)n1cccc2nc(SCc3ccc(F)cc3)nc1-2 (racemic),250 nM
5,CCC(C(=O)Nc1cc(NC2CCNC2)ccc1C)n1cc(Cl)cc2nc(SCc3ccc(F)cc3)nc1-2 (racemic),100 nM
6,CCC(C(=O)Nc1cc(NC2CNC2)ccc1C)n1cc(F)cc2nc(SCc3ccc(F)cc3)nc1-2 (racemic),270 nM

# Target: T1, Replicase polyprotein 1ab
# Assay: Inhibition of N-terminal 6His-tagged SARS-CoV-2 wild type PLpro extracted from Escherichia coli BL21 (DE3) cells incubated for 60 mins by FRET assay
row,Structure (SMILES),IC50
1,CCOc1ccc2ccccc2c1C(C)N1CCC(C(=O)NCc2ccnc(OC)c2)CC1 (racemic),> 98000 nM
2,COc1cc(CNC(=O)C2CCN(C(C)c3c(C)sc4ccccc34)CC2)ccn1 (racemic),> 98000 nM
3,COc1cc(CNC(=O)C2CCN(C(C)c3c(OC)ccc4ccccc34)CC2)ccn1 (racemic),> 98000 nM

# Target: T1, Replicase polyprotein 1ab
# Assay: Inhibition of SARS-CoV-2 Main protease
row,Structure (SMILES),IC50
1,Cc1ccc(NCC2CCN2)cc1C(=O)N[C@H](C)c1cccc2ccccc12 (mixture of isomers),900 nM
2,Cc1ccc(NC(=O)[C@@H]2CCCCN2)cc1C(=O)N[C@H](C)c1cccc2ccccc12,1300 nM
3,Cc1ccc(NC(=O)C2(N)CC2)cc1C(=O)N[C@H](C)c1cccc2ccccc12,3800 nM
4,Cc1ccc(NC[C@H]2CCCN2)cc1C(=O)N[C@H](C)c1cccc2ccccc12,900 nM
5,Cc1ccc(NC[C@H]2CCCCN2)cc1C(=O)N[C@H](C)c1cccc2ccccc12,1400 nM
6,Cc1ccc(NC[C@@H]2CCCN2C)cc1C(=O)N[C@H](C)c1cccc2ccccc12,900 nM
7,Cc1ccc(NC[C@@H]2CCCN2)cc1C(=O)N[C@H](C)c1cccc2ccccc12,800 nM
8,Cc1ccc(NC(=O)[C@H]2CCCCN2)cc1C(=O)N[C@H](C)c1cccc2ccccc12,300 nM
9,Cc1ccc(NC[C@@H]2CCCCN2)cc1C(=O)N[C@H](C)c1cccc2ccccc12,900 nM
10,Cc1ccc(NC(=O)CN)cc1C(=O)N[C@H](C)c1cccc2ccccc12,3300 nM
11,Cc1ccc(NC(N)=O)cc1C(=O)N[C@H](C)c1cccc2ccccc12,3800 nM

# Target: T1, Replicase polyprotein 1ab
# Assay: Inhibition of SARS-CoV-2 3CL protease extracted from Escherichia coli BL21 (DE3) Rosetta cells using DabcylKNSTLQSGLRKE-Edan as substrate preincubated for 60 mins followed by substrate addition and measured after 20 mins by FRET assay
row,Structure (SMILES),IC50
1,CCC(C(=O)Nc1cc(NC2CCOC2)ccc1C)n1cc(Cl)cc2nc(SCc3ccc(F)cc3)nc1-2 (racemic),160 nM
2,CCC(C(=O)Nc1ccccc1C)n1cc(F)cc2nc(SCc3ccc(F)cc3)nc1-2 (racemic),5090 nM
3,CCC(C(=O)Nc1cc(NC2COC2)ccc1C)n1cccc2nc(SCc3ccc(F)cc3)nc1-2 (racemic),300 nM
4,CCC(C(=O)Nc1cc(NC2CCOC2)ccc1C)n1cc(F)cc2nc(SCc3ccc(F)cc3)nc1-2 (racemic),1860 nM
5,CCC(C(=O)Nc1cc(NC2CCOCC2)ccc1C)n1cc(F)cc2nc(SCc3ccc(F)cc3)nc1-2 (racemic),1400 nM
6,CCC(C(=O)Nc1cc(NC2CCOCC2)ccc1C)n1cccc2nc(SCc3ccc(F)cc3)nc1-2 (racemic),600 nM

# Target: T1, Replicase polyprotein 1ab
# Assay: Inhibition of SARS-CoV-2 3CL protease by FRET assay
row,Structure (SMILES),IC50
1,CCC(C(=O)Nc1cc(NC2CCNCC2)ccc1C)n1cc(Br)cc2nc(SCc3ccc(F)cc3)nc1-2 (racemic),50 nM
2,CCC(C(=O)Nc1cc(NC2CNC2)ccc1C)n1cc(Br)cc2nc(SCc3ccc(F)cc3)nc1-2 (racemic),70 nM
3,CCC(C(=O)Nc1cc(NC2CNC2)ccc1C)n1cc(Cl)cc2nc(SCc3ccc(F)cc3)nc1-2 (racemic),90 nM
4,CCC(C(=O)Nc1cc(NC2CCNC2)ccc1C)n1cc(Cl)cc2nc(SCc3ccc(F)cc3)nc1-2 (racemic),70 nM
5,CCC(C(=O)Nc1cc(NC2CNC2)ccc1C)n1cc(F)cc2nc(SCc3ccc(F)cc3)nc1-2 (racemic),200 nM

# Target: T1, Replicase polyprotein 1ab
# Assay: Inhibition of SARS-CoV-2 papain-like protease (PLpro) by FRET analysis
row,Structure (SMILES),IC50
1,Cc1ccc(OCCN2CCCC2)cc1C(=O)N[C@H](C)c1cc(-c2cccs2)cc(-c2cccs2)c1,70 nM
2,Cc1ccc(NC(=O)CN(C)C)cc1C(=O)N[C@H](C)c1cc(-c2cccs2)cc(-c2cccs2)c1,110 nM
3,Cc1ccc(N)cc1C(=O)N[C@H](C)c1cc(-c2cccs2)cc(-c2cccs2)c1,170 nM
4,Cc1ccc(NC2CCN(C)CC2)cc1C(=O)N[C@H](C)c1cc(-c2cccs2)cc(-c2cccs2)c1,180 nM
5,Cc1ccc(OCC[N+](C)(C)C)cc1C(=O)N[C@H](C)c1cc(-c2cccs2)cc(-c2cccs2)c1,130 nM
6,Cc1ccc(NC(=O)CN)cc1C(=O)N[C@H](C)c1cc(-c2cccs2)cc(-c2cccs2)c1,140 nM
7,Cc1ccc(OCCN(C)C)cc1C(=O)N[C@H](C)c1cc(-c2cccs2)cc(-c2cccs2)c1,60 nM
8,Cc1ccc(NCCN2CCCCC2)cc1C(=O)N[C@H](C)c1cc(-c2cccs2)cc(-c2cccs2)c1,110 nM
9,Cc1ccc(OCCN)cc1C(=O)N[C@H](C)c1cc(-c2cccs2)cc(-c2cccs2)c1,60 nM
10,Cc1ccc(NC2CNC2)cc1C(=O)N[C@H](C)c1cc(-c2cccs2)cc(-c2cccs2)c1,171 nM
11,Cc1ccc(OCCN2CCOCC2)cc1C(=O)N[C@H](C)c1cc(-c2cccs2)cc(-c2cccs2)c1,360 nM
12,Cc1ccc(NCC2CNC2)cc1C(=O)N[C@H](C)c1cc(-c2cccs2)cc(-c2cccs2)c1,340 nM
13,Cc1ccc(NC(=O)C2CCNCC2)cc1C(=O)N[C@H](C)c1cc(-c2cccs2)cc(-c2cccs2)c1,163 nM

# Target: T1, Replicase polyprotein 1ab
# Assay: Inhibition of SARS-CoV-2 papain-like protease (PLpro) extracted from Escherichia coli BL21 (DE3) cells using RLRGG-AMC as substrate preincubated for 10 mins followed by substrate addition measured for 35 mins by FRET analysis
row,Structure (SMILES),IC50
1,Cc1ccc(NCC(C)(C)N)cc1C(=O)N[C@H](C)c1cccc2ccccc12,1800 nM
2,Cc1ccc(NC(=O)CN2CCCCC2)cc1C(=O)N[C@H](C)c1cccc2ccccc12,1800 nM
3,Cc1ccc(NC2CCN(C[C@H]3CCCN3)CC2)cc1C(=O)N[C@H](C)c1cccc2ccccc12,1800 nM
4,Cc1ccc(NC(=O)[C@@H](CN)NC[C@@H]2CCCN2)cc1C(=O)N[C@H](C)c1cccc2ccccc12,1900 nM
5,Cc1ccc(NC(=O)C2CCN2)cc1C(=O)N[C@H](C)c1cccc2ccccc12 (mixture of isomers),1800 nM
6,Cc1ccc(NC2CCN(S(C)(=O)=O)CC2)cc1C(=O)N[C@H](C)c1cccc2ccccc12,1900 nM
7,Cc1ccc(NC(=O)CCN)cc1C(=O)N[C@H](C)c1cccc2ccccc12,1800 nM
8,Cc1ccc(NC(=O)[C@@]2(C)CCCN2)cc1C(=O)N[C@H](C)c1cccc2ccccc12,1800 nM
9,Cc1ccc(NC(=O)[C@@H](N)CCN)cc1C(=O)N[C@H](C)c1cccc2ccccc12,1900 nM
10,Cc1ccc(NC(=O)C2CN(C)CCN2C)cc1C(=O)N[C@H](C)c1cccc2ccccc12 (mixture of isomers),1700 nM

# Target: T1, Replicase polyprotein 1ab
# Assay: Inhibition of SARS-CoV-2 papain-like protease
row,Structure (SMILES),IC50
1,Cc1ccc(N2CCNC(C)C2)cc1C(=O)NC1(c2cccc3ccccc23)CC1 (centres undefined),70 nM
2,Cc1ccc(N2CC3CNCC3C2)cc1C(=O)NC1(c2cccc3ccccc23)CC1 (centres undefined),30 nM
3,C#CC(=O)NNC(=O)CCc1ccccc1C(=O)N[C@H](C)c1cccc2ccccc12,90 nM
4,Cc1ccc(N)cc1C(=O)NC1(c2cccc3ccccc23)CC1,180 nM
5,Cc1ccc(N2CCN(C)CC2)cc1C(=O)NC1(c2cccc3ccccc23)CC1,20 nM
6,Cc1ccc(N2C[C@H]3C[C@@H](C2)N3)cc1C(=O)NC1(c2cccc3ccccc23)CC1,20 nM
7,Cc1ccc(N2CCN(CCC(=O)O)CC2)cc1C(=O)NC1(c2cccc3ccccc23)CC1,110 nM

# Target: T1, Replicase polyprotein 1ab
# Assay: Inhibition of SARS-CoV2 PLpro extracted from Escherichia coli using Z-RLRGG-AMC as substrate incubated for 30 mins by fluorescence based analysis
row,Structure (SMILES),IC50
1,Cc1ccc(Nc2ccncc2)cc1C(=O)N[C@H](C)c1cccc2ccccc12,1700 nM
2,Cc1ccc(NC(=O)C2CN(C)CCN2)cc1C(=O)N[C@H](C)c1cccc2ccccc12 (mixture of isomers),1700 nM
3,Cc1ccc(NC(=O)N2CCCN(C)CC2)cc1C(=O)N[C@H](C)c1cccc2ccccc12,1500 nM
4,Cc1ccc(NC(=O)N2CCN(C)CC2)cc1C(=O)N[C@H](C)c1cccc2ccccc12,1600 nM
5,Cc1ccc(NC(=O)[C@@H](N)CCCCN)cc1C(=O)N[C@H](C)c1cccc2ccccc12,1700 nM
6,Cc1ccc(NC(=O)[C@@H](N)CN)cc1C(=O)N[C@H](C)c1cccc2ccccc12,1600 nM
7,Cc1ccc(NC(=O)C2CN(C)C2)cc1C(=O)N[C@H](C)c1cccc2ccccc12,1550 nM
8,Cc1ccc(NCC2CCNC2)cc1C(=O)N[C@H](C)c1cccc2ccccc12 (mixture of isomers),1500 nM
9,CNCCCNc1ccc(C)c(C(=O)N[C@H](C)c2cccc3ccccc23)c1,1500 nM

# Target: T1, Replicase polyprotein 1ab
# Assay: Binding affinity to SARS-CoV-2 Main protease assessed as inhibition constant by SPR analysis
row,Structure (SMILES),Ki
1,Cc1ccc(OCCN(C)C)cc1C(=O)N[C@H](C)c1cc(-c2cccs2)cc(-c2cccs2)c1,10 nM
2,CCn1ccc(-c2cc(-c3cnn(CCOC)c3)cc([C@@H](C)NC(=O)c3cc(OCCN(C)C)ccc3C)c2)n1,30 nM
3,Cc1ccc(OCCN(C)C)cc1C(=O)N[C@H](C)c1cc(-c2cnn(C)c2)cc(-c2cnn(C)c2)c1,30 nM

# Target: T1, Replicase polyprotein 1ab
# Assay: Binding affinity to SARS-CoV-2 papain-like protease extracted from Escherichia coli BL21 (DE3) cells assessed as inhibition constant by SPR analysis
row,Structure (SMILES),Ki
1,COCn1cc(-c2cc(-c3cnn(C(F)F)c3)cc([C@@H](C)NC(=O)c3cc(OCCN(C)C)ccc3C)c2)cn1,80 nM
2,Cc1ccc(OCCN(C)C)cc1C(=O)N[C@H](C)c1cc(-c2cnn(C)c2)cc(-c2cnn(C(F)F)c2)c1,30 nM
3,Cc1ccc(OCCN(C)C)cc1C(=O)N[C@H](C)c1cc(-c2cnn(CF)c2)cc(-c2ccn(C)n2)c1,30 nM
4,Cc1ccc(OCCN(C)C)cc1C(=O)N[C@H](C)c1cc(-c2cnn(CCN3CCOCC3)c2)cc(-c2ccn(C)n2)c1,40 nM
5,Cc1ccc(OCCN(C)C)cc1C(=O)N[C@H](C)c1cc(-c2cnn(C)c2)cc(-c2ccn(C)n2)c1,40 nM
6,Cc1ccc(OCCN(C)C)cc1C(=O)N[C@H](C)c1cc(-c2cnn(C)c2)cc(-c2cnn(CCN3CCOCC3)c2)c1,20 nM
7,Cc1ccc(OCCN(C)C)cc1C(=O)N[C@H](C)c1cc(-c2cnn(C)c2)cc(-c2cncs2)c1,30 nM
8,Cc1ccc(OCCN(C)C)cc1C(=O)N[C@H](C)c1cc(-c2cnn(C)c2)cc(-c2cnn(C3CC3)c2)c1,30 nM
9,Cc1ccc(OCCN(C)C)cc1C(=O)N[C@H](C)c1cc(-c2cnn(C)c2)cc(-c2cnn(C(C)C)c2)c1,40 nM
10,Cc1ccc(OCCN(C)C)cc1C(=O)N[C@H](C)c1cc(-c2cccs2)cc(-c2ccc(CN)s2)c1,70 nM
